Holding throughout (type): functional
One experiment has as its system SK-MEL-5. The experiment is described as follows: Cytotoxicity against human SK-MEL-5 cells assessed as cell growth at 2.13 uM after 48 hrs by SRB assay. The following applies: SK-MEL-5, 48 h, read-out: Activity. For orientation: Sulforhodamine B stains cellular protein and so reports cell mass.
The nature of experiment [1]: Cytotoxicity against human Hs 578T cells assessed as cell growth at 2.13 uM after 48 hrs by SRB assay. The following applies: read-out: Activity.
The nature of experiment [2]: Cytotoxicity against human HL-60(TB) cells assessed as cell growth at 2.13 uM after 48 hrs by SRB assay. The note with it: HL-60, 48 h, read-out: Activity.
The test system of experiment [3] is M14. The experiment is described as follows: Cytotoxicity against human M14 cells assessed as cell growth at 2.13 uM after 48 hrs by SRB assay. The following applies: M14, 48 h, read-out: Activity.
The nature of experiment [4]: Cytotoxicity against human OVCAR8 cells assessed as cell growth at 2.13 uM after 48 hrs by SRB assay. The following applies: OVCAR-8, 48 h, read-out: Activity.
The test system of the next experiment is SK-MEL-2. The experiment is described as follows: Cytotoxicity against human SK-MEL-2 cells assessed as cell growth at 2.13 uM after 48 hrs by SRB assay. The note with it: SK-MEL-2, 48 h, read-out: Activity.
Experiment [5] in a line: Cytotoxicity against human Caki1 cells assessed as cell growth at 2.13 uM after 48 hrs by SRB assay. The following applies: CAKI-1, 48 h, read-out: Activity.
Experiment [6] can be described thus: Cytotoxicity against human BT549 cells assessed as cell growth at 2.13 uM after 48 hrs by SRB assay. The note with it: BT-549, 48 h, read-out: Activity.
The nature of experiment [7]: Cytotoxicity against human SW620 cells assessed as cell growth at 2.13 uM after 48 hrs by SRB assay. The note with it: SW-620, 48 h, read-out: Activity.
Experiment [8] is described as follows: Cytotoxicity against human COLO205 cells assessed as cell growth at 2.13 uM after 48 hrs by SRB assay. The note with it: COLO 205, 48 h, read-out: Activity.
The subject of another experiment is NCI-H226. The experiment is described as follows: Cytotoxicity against human NCI-H226 cells assessed as cell mortality at 2.13 uM after 48 hrs by SRB assay. The following applies: NCI-H226, 48 h.
Experiment [9] can be described thus: Cytotoxicity against human LOXIMVI cells assessed as cell growth at 2.13 uM after 48 hrs by SRB assay. The following applies: LOX IMVI, read-out: Activity.
A further experiment deals with SR. The experiment is described as follows: Cytotoxicity against human SR cells assessed as cell growth at 2.13 uM after 48 hrs by SRB assay. The following applies: read-out: Activity.
Experiment [10] can be described thus: Cytotoxicity against human OVCAR3 cells assessed as cell growth at 10 uM after 48 hrs by SRB assay. The following applies: OVCAR-3, 48 h, read-out: Activity.
Experiment [11] can be described thus: Cytotoxicity against human OVCAR8 cells assessed as cell growth at 10 uM after 48 hrs by SRB assay. The note with it: OVCAR-8, 48 h, read-out: Activity.
For the next experiment, the system named is SN12C. The experiment in a line: Cytotoxicity against human SN12C cells assessed as cell growth at 10 uM after 48 hrs by SRB assay. The note with it: read-out: Activity.
The subject of a further experiment is MDA-MB-468. The experiment is described as follows: Cytotoxicity against human MDA-MB-468 cells assessed as cell growth at 10 uM after 48 hrs by SRB assay. The note with it: MDA-MB-468, 48 h, read-out: Activity.
A short description of experiment [12]: Cytotoxicity against human SNB75 cells assessed as cell growth at 10 uM after 48 hrs by SRB assay. The note with it: SNB-75, 48 h, read-out: Activity.
Another experiment concerns K562. The experiment is described as follows: Cytotoxicity against human K562 cells assessed as cell growth at 10 uM after 48 hrs by SRB assay. The following applies: K562, 48 h, read-out: Activity.
Experiment [13] relates to T47D. The experiment in a line: Cytotoxicity against human T47D cells assessed as cell growth at 10 uM after 48 hrs by SRB assay. The following applies: read-out: Activity.
The subject of the next experiment is NCI-H460. The experiment is described as follows: Cytotoxicity against human NCI-H460 cells assessed as cell growth at 10 uM after 48 hrs by SRB assay. The note with it: NCI-H460, 48 h, read-out: Activity.
Experiment [14] in a line: Cytotoxicity against human HOP92 cells assessed as cell growth at 10 uM after 48 hrs by SRB assay. The note with it: HOP-92, 48 h, read-out: Activity.
Experiment [15] can be described thus: Cytotoxicity against human OVCAR4 cells assessed as cell growth at 10 uM after 48 hrs by SRB assay. The note with it: OVCAR-4, 48 h, read-out: Activity.
In experiment [16] the test system is NCI-H522. The experiment in a line: Cytotoxicity against human NCI-H522 cells assessed as cell mortality at 10 uM after 48 hrs by SRB assay. The note with it: NCI-H522, 48 h.
The nature of experiment [17]: Cytotoxicity against human HL-60(TB) cells assessed as cell growth at 10 uM after 48 hrs by SRB assay. The note with it: HL-60, 48 h, read-out: Activity.
Experiment [18] in a line: Cytotoxicity against human RPMI8226 cells assessed as cell growth at 10 uM after 48 hrs by SRB assay. The following applies: RPMI-8226, 48 h, read-out: Activity.
For a further experiment, the system named is ACHN. The experiment in a line: Cytotoxicity against human ACHN cells assessed as cell growth at 10 uM after 48 hrs by SRB assay. The following applies: read-out: Activity.
A short description of experiment [19]: Cytotoxicity against human SNB19 cells assessed as cell growth at 10 uM after 48 hrs by SRB assay. The following applies: SNB-19, 48 h, read-out: Activity.
The nature of experiment [20]: Cytotoxicity against human MOLT4 cells assessed as cell growth at 7.25 uM after 48 hrs by SRB assay. The following applies: MOLT-4, 48 h, read-out: Activity.
Experiment [21] is described as follows: Cytotoxicity against human TK10 cells assessed as cell growth at 7.25 uM after 48 hrs by SRB assay. The following applies: TK-10, 48 h, read-out: Activity.
A short description of experiment [22]: Cytotoxicity against human SF295 cells assessed as cell growth at 7.25 uM after 48 hrs by SRB assay. The following applies: SF-295, 48 h, read-out: Activity.
The nature of experiment [23]: Cytotoxicity against human SF539 cells assessed as cell growth at 7.25 uM after 48 hrs by SRB assay. The following applies: SF-539, 48 h, read-out: Activity.
The nature of experiment [24]: Cytotoxicity against human OVCAR4 cells assessed as cell growth at 7.25 uM after 48 hrs by SRB assay. The note with it: OVCAR-4, 48 h, read-out: Activity.
The subject of experiment [25] is M14. The experiment in a line: Cytotoxicity against human M14 cells assessed as cell growth at 7.25 uM after 48 hrs by SRB assay. The note with it: M14, 48 h, read-out: Activity.
Experiment [26] deals with NCI-H522. The experiment is described as follows: Cytotoxicity against human NCI-H522 cells assessed as cell mortality at 7.25 uM after 48 hrs by SRB assay. The following applies: NCI-H522, 48 h.
Experiment [27] relates to T47D. The experiment is described as follows: Cytotoxicity against human T47D cells assessed as cell growth at 7.25 uM after 48 hrs by SRB assay. The following applies: read-out: Activity.
A further experiment has as its system CCRF-CEM. The experiment in a line: Cytotoxicity against human CCRF-CEM cells assessed as cell growth at 7.25 uM after 48 hrs by SRB assay. The note with it: read-out: Activity.
Experiment [28] can be described thus: Cytotoxicity against human HCC2998 cells assessed as cell growth at 7.25 uM after 48 hrs by SRB assay. The note with it: HCC 2998, 48 h, read-out: Activity.
The next experiment has as its system A549. The experiment in a line: Cytotoxicity against human A549 cells assessed as cell growth at 7.25 uM after 48 hrs by SRB assay. The note with it: A549, 48 h, read-out: Activity.
The next experiment deals with MDA-MB-435. The experiment is described as follows: Cytotoxicity against human MDA-MB-435 cells assessed as cell growth at 7.25 uM after 48 hrs by SRB assay. The note with it: MDA-MB-435, 48 h, read-out: Activity.
Experiment [29] is described as follows: Cytotoxicity against human HCT15 cells assessed as cell growth at 7.25 uM after 48 hrs by SRB assay. The following applies: HCT-15, 48 h, read-out: Activity.

SMILES strings stand for the structures.

Usually mortality stands for the percentage killed. As to `CCCCCCCCCCCCCCCCNCCO[C@H]1C[C@H](n2cc(C)c(=O)[nH]c2=O)O[C@@H]1C(=O)NCCCC[C@H](NC(=O)[C@H](C)NC(=O)[C@H](CCCCN)NC(=O)[C@H](C)NC(=O)[C@H](CC(C)C)NC(=O)[C@H](CCCCN)NC(=O)[C@H](C)NC(=O)[C@H](CC(C)C)NC(=O)[C@H](CCCCN)NC(=O)[C@H](CCCCN)NC(=O)[C@H](C)NC(=O)[C@H](CC(C)C)NC(=O)[C@H](CCCCN)NC(=O)[C@H](C)NC(=O)[C@H](CC(C)C)NC(=O)[C@H](CCCCN)NC(=O)[C@@H](N)CC(=O)O)C(N)=O`, the growth at 2.13 µM in the experiment on SK-MEL-5 was determined as 105%; in experiment [1], 101%; in experiment [2], 93.8%; in the experiment with M14 [3] it was 98.5%; in experiment [4] it was 96.8%; in the experiment with SK-MEL-2, 111%. Further, the growth at 2.13 µM turned out to be 96.1% in experiment [5]; 113% in experiment [6]; 108% in experiment [7]; 109% in [8]; 94.6% in experiment [9]; 96.6% in the experiment on SR. Moreover, the mortality at 2.13 µM with NCI-H226 is 4%.

For the molecule `CC(C)C[C@H](NC(=O)[C@H](CCCCN)NC(=O)[C@H](C)NC(=O)[C@H](CC(C)C)NC(=O)[C@H](CCCCN)NC(=O)[C@H](CCCCN)NC(=O)[C@H](C)NC(=O)[C@H](CC(C)C)NC(=O)[C@H](CCCCN)NC(=O)[C@H](C)NC(=O)[C@H](CC(C)C)NC(=O)[C@H](CCCCN)NC(=O)[C@@H](N)CC(=O)O)C(=O)N[C@@H](C)C(=O)N[C@@H](CCCCN)C(=O)N[C@@H](C)C(=O)N[C@@H](CCCCN)C(N)=O`, the growth at 10 µM was 100% in experiment [10]; 101% in experiment [11]; 99% in the experiment on SN12C; 100% in the experiment on MDA-MB-468; 98.8% in [12]; 99.8% in the experiment on K562. For the same molecule, the growth at 10 µM was determined as 113% in the experiment on T47D [13]; 117% in the experiment with NCI-H460; 86.1% in experiment [14]; 109% in [15]; 99.5% in experiment [17]; 104% in experiment [18]. Also, the growth at 10 µM in the experiment with ACHN turned out to be 107%; in experiment [19], 106%. For the same molecule, the mortality at 10 µM in the experiment on NCI-H522 [16] was 14%.

Regarding `CCCCCCCCCCCCCCCC(=O)NCCCC[C@H](NC(=O)[C@H](C)NC(=O)[C@H](CCCCN)NC(=O)[C@H](C)NC(=O)[C@H](CC(C)C)NC(=O)[C@H](CCCCN)NC(=O)[C@H](C)NC(=O)[C@H](CC(C)C)NC(=O)[C@H](CCCCN)NC(=O)[C@H](CCCCN)NC(=O)[C@H](C)NC(=O)[C@H](CC(C)C)NC(=O)[C@H](CCCCN)NC(=O)[C@H](C)NC(=O)[C@H](CC(C)C)NC(=O)[C@H](CCCCN)NC(=O)[C@@H](N)CC(=O)O)C(N)=O`, the growth at 7.25 µM in experiment [20] stood at 97.6%; in experiment [21], 92.1%; in experiment [22], 110%; in experiment [23] it was 102%; in experiment [24] it was 116%; in the experiment with M14 [25], 102%. Moreover, the growth at 7.25 µM in the experiment with T47D [27] was determined as 99%; in the experiment with CCRF-CEM it was 111%; in experiment [28] it was 101%; in the experiment with A549, 67.6%; with MDA-MB-435 it was 113%; in experiment [29], 109%. Besides, in the experiment with NCI-H522 [26], the mortality at 7.25 µM is 16%.

The values above are taken from ChEMBL document CHEMBL3822390, “Synthesis, characterization and anti-cancer activity of a peptide nucleolipid bioconjugate” (2016).
